The values below come from patent US9005670B2, “Use of histone acetyltransferase inhibitors as novel anti-cancer therapies” (The Johns Hopkins University, priority 2010, dated 2015).

Data set [1] has as its target T1, MOZ histone acetyltransferase (Homo sapiens, UniProt Q92794).
T1 construct: made in house
Nature of the data set: MOZ direct radioactive HAT assay. Format: biochemical. The following applies: 10 μM compound; read-out: Percent inhibition of acetyltransferase, Moz. The protocol: (§1) PCAF reactions were performed in 100 mM HEPES, pH 7.9, and contained 200 μM TPP, 5 mM MgCl2, 1 mM DTT, 50 mM NaCl, 0.05 mg/mL BSA, 200 μM NAD, 2.4 mM α-KG, 30 μM acetyl-CoA, 0.037 units α-KGDH, 3.3% DMSO, and 10 μM inhibitor. Reactions took place at 30° C. Reactions were initiated by addition of 10 nM PCAF and were followed at 340 nm over the linear portion of the curve below 10% turnover. AANAT reactions were performed in 100 mM NH4 OAc, pH 6.8, and contained 200 μM TPP, 5 mM MgCl2, 1 mM DTT, 50 mM NaCl, 0.05 mg/mL BSA, 200 μM NAD, 2.4 mM α-KG, 200 μM AcCoA, 0.1 units α-KGDH, 3.3% DMSO, and 10 μM inhibitor. Reactions took place at 25° C. Reactions were initiated with addition of 65 nM AANAT, and followed at 340 nm, as above. Percent inhibition values were compared to those with p300, which were repeated using the protocol given above. […]
(§2) HAT assays with yeast GCN5, SAS complex, MOZ, and Rtt109/Vps75 complex used the direct radioactive assay described above. […] The amount of enzyme used in each assay was estimated by comparing Coomassie Blue staining of samples with bovine serum albumin standards, analyzed by SDS-PAGE. […] The rate of ^14C-incorporation into histone H3 was quantified by autoradiography. […]

The next data set has as its system LN382 glioblastoma cells. Kind of data set: AlamarBlue growth inhibition, LN382. The format is cell-based. The following applies: LN382, 72 hours. Here is the method: Dose response curves were generated using the AlamarBlue® assay (Invitrogen, Carlsbad, Calif.).
When inhibition was assessed using the AlamarBlue® assay (Invitrogen, Carlsbad, Calif.), cells were initially seeded at 500 cells per well in a 96-well plate. AlamarBlue® is a non-toxic reagent that measures cellular metabolic activity. Its main ingredient is resazurin, a non-fluorescent indicator dye that is reduced to bright red-fluorescent resorufin in metabolically active cells. AlamarBlue® was added to growth medium at 1/10 of the total volume (e.g., 20 μl in 200 μl total volume). […] Fluorescence reading was taken from the same plate every day for 5 days to ensure that the saturation point was not reached. Fluorescence intensity is proportional to the number of live cells in the plate.

The next data set deals with NIH3T3 cells. Kind of data set: NIH3T3 cell proliferation. The format is cell-based. Here is the method:
Cells were treated for 24 hours and proliferation was measured via ^3H-thymidine incorporation pre- and post-treatment. Data for each cell line were normalized to ^3H counts measured pre-treatment. […] Ac-DDDD-Tat is a control peptide for Lys-CoA-Tat. WM35, WM983A, and 1205Lu are melanoma cell lines representing three stages of cancer progression: radial, vertical, and metastatic, respectively.

Data set [2] has as its system global histone H3 acetylation in WM983A cells. Kind of data set: histone H3 acetylation Western blot in WM983A. Format: cell-based, human. The conditions noted are these: 6 hours, increasing doses. The protocol:
Cells were treated with each compound for 24 hours, and proliferation was measured via ^3H-thymidine incorporation. […] Nuclear lysates were subjected to Western blot analysis for acetylated H3 (Upstate 06-599). Total H3 (Abeam ab1791) was blotted as a loading control.

The next data set addresses T2, yeast GCN5 (Saccharomyces cerevisiae, UniProt Q03330).
T2 construct: made in house
Kind of data set: GCN5 direct radioactive HAT assay. The format is biochemical. The following applies: 10 μM compound; read-out: Percent inhibition of acetyltransferase, GCN5. Here is the method: as §1, §2

The nature of data set [3]: reaction with beta-mercaptoethanol (absorbance spectrum). Format: physicochemical. The following applies: 10 mM beta-mercaptoethanol, up to one hour.
Another data set deals with WM983A melanoma cells. Nature of the data set: cell cycle analysis, propidium iodide FACS. Format: cell-based, human. The following applies: 48 hours. Here is the method: The degree of growth arrest observed in these experiments corresponds with the decrease in ^3H-thymidine incorporation described above.
Cells treated with C646 or DMSO were stained with propidium iodide (PI). Briefly, equal number of cells (greater than 10 6) in 0.5 ml PBS were fixed in 70% ethanol for at least 2 h at 4° C. A stock staining solution containing 10 ml of 0.1% Triton X-100 in PBS, 400 μl of RNase cocktail (equivalent of −200 units of RNase A) (Ambion), and 200 μl of 1 mg/ml PI was prepared. Fixed cells were spun at 200 g for 5 min (Beckman Coulter Allegra® X-12R, with an SX4750A rotor), re-hydrated in 5 ml PBS, and spun again to remove all traces of ethanol. Cells were stained with 1 ml staining solution for 20 min at 37° C., then immediately analyzed on a FACSCalibur flow cytometer (BD Biosciences) at the Johns Hopkins Flow Cytometry Core Facility. Data acquisition and analysis were performed with the CellQuest software (BD). WinMDI 2.9 (http://facs.scripps.edu.software.html) was also used for data presentation.

Data set [4] concerns cyclin A in melanoma cells. Nature of the data set: cyclin A protein expression, Western blot. The format is cell-based. The following applies: 10-20 μM C646. The source says:
FIGS. 19A and 19B show the effects of p300/CBP HAT inhibition on cyclin A protein expression in melanoma cells.
Cyclin A is involved in two cell cycle checkpoints. Cyclin A associates with cdk2 to promote S phase progression, and then it associates with cdc2 during the G2 phase.

T1 sequence (Q92794 497-780 limits assumed): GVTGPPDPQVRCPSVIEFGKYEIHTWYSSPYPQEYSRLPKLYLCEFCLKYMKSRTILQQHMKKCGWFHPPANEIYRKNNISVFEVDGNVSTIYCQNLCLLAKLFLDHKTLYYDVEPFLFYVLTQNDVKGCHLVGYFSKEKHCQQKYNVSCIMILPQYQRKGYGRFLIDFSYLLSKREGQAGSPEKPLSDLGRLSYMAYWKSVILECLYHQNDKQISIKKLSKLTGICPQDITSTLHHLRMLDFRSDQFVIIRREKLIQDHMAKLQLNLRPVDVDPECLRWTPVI
T2 sequence (Q03330 whole entry): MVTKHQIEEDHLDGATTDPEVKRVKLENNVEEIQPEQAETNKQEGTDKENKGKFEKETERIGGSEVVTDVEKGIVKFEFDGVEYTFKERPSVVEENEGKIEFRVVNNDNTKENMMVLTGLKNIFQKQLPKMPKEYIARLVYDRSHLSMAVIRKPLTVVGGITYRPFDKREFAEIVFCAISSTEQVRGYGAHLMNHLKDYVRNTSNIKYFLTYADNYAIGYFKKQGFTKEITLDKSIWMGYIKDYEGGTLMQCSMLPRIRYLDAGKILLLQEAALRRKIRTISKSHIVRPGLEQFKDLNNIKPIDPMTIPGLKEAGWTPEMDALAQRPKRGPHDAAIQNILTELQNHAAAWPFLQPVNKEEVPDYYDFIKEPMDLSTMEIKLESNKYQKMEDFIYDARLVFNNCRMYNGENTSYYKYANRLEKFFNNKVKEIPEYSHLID

Consider `CC1=NN(c2ccc(C(=O)O)cc2)C(=O)C1=Cc1ccc(-c2cc(C)c(C)cc2[N+](=O)[O-])o1` [Compound C646, 4-(4,5-dihydro-3-methyl-4-((5-(4,5-dimethyl-2-nitrophenyl)furan-2-yl)methylene)-5-oxopyrazol-1-yl)benzoic acid], for which the inhibition at 10 µM (in data set [1]; at yeast GCN5) was < 10% throughout. In addition, in the data set on LN382 glioblastoma cells, the IC50 came out at 35.5 µM. Also, the “effect on cell proliferation” value in the data set with NIH3T3 cells is listed as “does not have a significant inhibitory effect”. In addition, the “global histone H3 acetylation” value in data set [2] was “dose-dependent reduction”. For the same compound, the “reaction with thiol (adduct formation)” value in data set [3] is “no evidence of reaction”. In addition, the cell cycle distribution entry with WM983A melanoma cells was “decreased the number of cells in S and G2 phase”. In data set [4], the “cyclin A protein level” value is reported as “decreases after C646 treatment in a dose-dependent fashion”.
